SMILES strings stand for the structures. Where a name gives a salt, the structure may show the parent alone. Read-outs that look alike come from different tables or passages of the source.

In this test the target is T1, human TRPM8 (Homo sapiens, UniProt Q7Z2W7).
T1 construct: expressed in transfected cells; host or cells: Chinese hamster ovary (CHO) cells, T-REx tetracycline-inducible system, co-transfected with aequorin
As to the kind of experiment: Luminescence readout assay for measuring intracellular calcium, icilin activation. The conditions noted are these: 1 μM icilin activation. The class given is cell-based. As to the method: Luminescence Readout Assay for Measuring Intracellular Calcium.
A stable Chinese hamster ovary cell line expressing human TRPM8 was generated using tetracycline inducible T-REx™ expression system from Invitrogen, Inc. (Carlsbad, Calif.). […] Twenty four hours before the assay, cells were seeded in 96-well plates and TRPM8 expression was induced with 0.5 μg/mL tetracycline. […] Potential antagonists were added 2.5 min prior to the addition of agonist, 1 μM icilin, 100 μM L-menthol, or 1 min prior to the addition of cold buffer (<10° C.). The luminescence was measured by a CCD camera based FLASH-luminometer built by Amgen, Inc. A cooling device attached to FLASH luminometer was used for cold activation.
A general note: Calcium flux is commonly read through the fluorescence of an indicator in the cells.

The mark [1] stands for this setting: CHO cells expressing human TRPM8, aequorin luminescence, read-out: hTRPM8 IC50.

T1 sequence (Q7Z2W7 whole entry): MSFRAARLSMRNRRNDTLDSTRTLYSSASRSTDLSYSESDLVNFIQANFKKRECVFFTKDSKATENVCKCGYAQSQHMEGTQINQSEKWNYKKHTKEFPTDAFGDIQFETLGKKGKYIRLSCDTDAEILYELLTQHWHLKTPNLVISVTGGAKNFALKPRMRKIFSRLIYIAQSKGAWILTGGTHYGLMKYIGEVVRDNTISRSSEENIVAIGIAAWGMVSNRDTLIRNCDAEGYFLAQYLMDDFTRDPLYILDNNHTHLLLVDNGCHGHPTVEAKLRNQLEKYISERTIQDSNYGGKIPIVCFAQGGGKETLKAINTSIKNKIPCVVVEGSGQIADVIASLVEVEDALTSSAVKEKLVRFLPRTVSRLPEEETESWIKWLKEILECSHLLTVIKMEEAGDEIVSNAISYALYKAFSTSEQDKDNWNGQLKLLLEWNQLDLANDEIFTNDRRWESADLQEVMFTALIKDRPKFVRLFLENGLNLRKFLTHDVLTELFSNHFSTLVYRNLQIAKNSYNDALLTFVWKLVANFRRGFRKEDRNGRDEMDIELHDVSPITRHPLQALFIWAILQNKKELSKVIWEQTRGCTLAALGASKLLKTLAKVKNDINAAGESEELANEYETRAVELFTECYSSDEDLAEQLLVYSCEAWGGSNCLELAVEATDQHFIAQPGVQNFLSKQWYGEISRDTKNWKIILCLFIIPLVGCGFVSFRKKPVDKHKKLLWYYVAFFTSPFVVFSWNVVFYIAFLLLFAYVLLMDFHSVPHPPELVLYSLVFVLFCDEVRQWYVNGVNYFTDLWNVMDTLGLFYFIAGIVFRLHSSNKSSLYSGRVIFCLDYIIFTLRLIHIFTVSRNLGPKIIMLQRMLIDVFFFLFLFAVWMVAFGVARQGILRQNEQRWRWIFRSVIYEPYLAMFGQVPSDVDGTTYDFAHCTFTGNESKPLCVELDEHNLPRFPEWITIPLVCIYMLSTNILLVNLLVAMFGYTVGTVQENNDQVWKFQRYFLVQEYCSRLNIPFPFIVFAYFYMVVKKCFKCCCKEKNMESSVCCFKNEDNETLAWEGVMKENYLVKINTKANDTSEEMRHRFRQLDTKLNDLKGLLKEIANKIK

The term IC50 denotes the concentration at which inhibition is half-maximal. With `COc1ccc([C@H](NC(=O)c2ccc(=O)[nH]c2)c2ncccc2F)cc1` [Example 342, (S)-N-((3-fluoropyridin-2-yl)(4-methoxyphenyl)methyl)-6-oxo-1,6-dihydropyridine-3-carboxamide], the half-maximal inhibitory concentration (IC50) under setting [1] was 255 nM.
For `O=C(N[C@@H](c1ccc(C(F)(F)F)cc1)c1ncccc1C(F)(F)F)c1cc2cccnc2[nH]1` [Example 66, (S)-N-((4-(trifluoromethyl)phenyl)(3-(trifluoromethyl)pyridin-2-yl)methyl)-1H-pyrrolo[2,3-b]pyridine-2-carboxamide], the IC50 under setting [1] turned out to be 405 nM.
Still for that read-out and setting: the same measure for `O=C(N[C@@H](c1ccc(C(F)(F)F)cc1)c1ncccc1C(F)(F)F)c1ccncc1` [Example 178, (S)-N-((4-(trifluoromethyl)phenyl)(3-(trifluoromethyl)pyridin-2-yl)methyl)isonicotinamide]: 26.2 nM; for `O=C1CC(C(=O)N[C@@H](c2ccc(C(F)(F)F)cc2)c2ncccc2C(F)(F)F)CN1` (stereo partly drawn) [Example 163, 5-oxo-N-((S)-(4-(trifluoromethyl)phenyl)(3-(trifluoromethyl)pyridin-2-yl)methyl)pyrrolidine-3-carboxamide]: 3180 nM; for `O=C(N[C@@H](c1ccc(C(F)(F)F)cc1)c1ncccc1F)c1ccc(=O)n(CC(F)(F)F)c1` [Example 372, (S)-N-((3-fluoropyridin-2-yl)(4-(trifluoromethyl)phenyl)methyl)-6-oxo-1-(2,2,2-trifluoroethyl)-1,6-dihydropyridine-3-carboxamide]: 89.4 nM.
As to `CC#Cc1cccnc1[C@@H](NC(=O)c1ccccc1)c1ccc(C(F)(F)F)cc1` [Example 98, (S)-N-((3-(prop-1-yn-1-yl)pyridin-2-yl)(4-(trifluoromethyl)phenyl)methyl)benzamide], the IC50 under setting [1] turned out to be 125 nM.
Same read-out and setting: the value for `O=C(NC(c1ccc(Cl)c(Cl)c1)c1ccccn1)c1ccc2cnccc2c1` (stereo not drawn) [Example 247, N-((3,4-dichlorophenyl)(pyridin-2-yl)methyl)isoquinoline-6-carboxamide bis-hydrochloride] was 42.7 nM; that for `Cn1cc(C(=O)N[C@@H](c2ccc(OC(F)(F)F)c(F)c2)c2ccccc2F)ccc1=O` [Example 296, (S)-N-((3-fluoro-4-(trifluoromethoxy)phenyl)(2-fluorophenyl)methyl)-1-methyl-6-oxo-1,6-dihydropyridine-3-carboxamide] was 23.1 nM; that for `O=C(N[C@@H](c1ccc(C(F)(F)F)cc1)c1ncccc1F)c1ccc2[nH]c(=O)ccc2c1` [Example 104, (S)-N-((3-fluoropyridin-2-yl)(4-(trifluoromethyl)phenyl)methyl)-2-oxo-1,2-dihydroquinoline-6-carboxamide] was 6.2 nM.
Same read-out and setting: the value for `O=C(N[C@@H](c1ccc(C(F)(F)F)cc1)c1ncccc1C(F)(F)F)c1ccccc1I` [Example 118, (S)-2-iodo-N-((4-(trifluoromethyl)phenyl)(3-(trifluoromethyl)pyridin-2-yl)methyl)benzamide] was 90.5 nM.
As to `O=C(N[C@@H](c1ccc(C(F)(F)F)cc1)c1cnccc1C(F)(F)F)c1ccc2ncccc2c1` [Example 260, (S)-N-((4-(trifluoromethyl)phenyl)(4-(trifluoromethyl)pyridin-3-yl)methyl)quinoline-6-carboxamide bis (2,2,2-trifluoroacetate)], under setting [1], the IC50 was 311 nM.
Still for that read-out and setting: the value for `CC(O)c1ccc([C@H](NC(=O)c2ccc3cccnc3c2)c2ncccc2C(F)(F)F)cc1` (stereo partly drawn) [Example 26, N-((1S)-(4-(1-hydroxyethyl)phenyl)(3-(trifluoromethyl)pyridin-2-yl)methyl)quinoline-7-carboxamide] was 3290 nM.
With `Cn1nc(C(=O)N[C@@H](c2ccc(C(F)(F)F)cc2)c2ncccc2C(F)(F)F)c2ccccc21` [Example 215, (S)-1-methyl-N-((4-(trifluoromethyl)phenyl)(3-(trifluoromethyl)pyridin-2-yl)methyl)-1H-indazole-3-carboxamide], the IC50 (hTRPM8 IC50, CHO cells expressing human TRPM8, aequorin luminescence) came to 84.5 nM.
Regarding `CC(C)(C(=O)O)C(=O)N[C@@H](c1ccc(C(F)(F)F)cc1)c1ncccc1C(F)(F)F` [Example 243, (S)-2,2-dimethyl-3-oxo-3-(((4-(trifluoromethyl)phenyl)(3-(trifluoromethyl)pyridin-2-yl)methyl)amino)propanoic acid], the concentration for half-maximal inhibition (IC50) under setting [1] stood at 1440 nM.
`O=C(N[C@@H](c1ccc(C(F)(F)F)cc1)c1ncccc1C(F)(F)F)c1cccc(=O)[nH]1` [Example 63, (S)-6-oxo-N-((4-(trifluoromethyl)phenyl)(3-(trifluoromethyl)pyridin-2-yl)methyl)-1,6-dihydropyridine-2-carboxamide]: under setting [1], the half-inhibitory concentration (IC50) worked out at 134 nM.
Same read-out and setting: the value for `COc1ccc(C(=O)N[C@@H](c2ccc(C(F)(F)F)cc2)c2ncccc2C(F)(F)F)cc1` [Example 171, (S)-4-methoxy-N-((4-(trifluoromethyl)phenyl)(3-(trifluoromethyl)pyridin-2-yl)methyl)benzamide] was 17.3 nM; that for `O=C(N[C@@H](c1ccc(C(F)(F)F)cc1)c1ncccc1F)c1n[nH]c2c1CCC2` [Example 321, (S)-N-((3-fluoropyridin-2-yl)(4-(trifluoromethyl)phenyl)methyl)-1,4,5,6-tetrahydrocyclopenta[c]pyrazole-3-carboxamide] was 164 nM; that for `O=C(N[C@@H](c1ccc(C(F)(F)F)cc1)c1ncccc1C(F)(F)F)C1CCOC1` (stereo partly drawn) [Example 225, N-((S)-(4-(trifluoromethyl)phenyl)(3-(trifluoromethyl)pyridin-2-yl)methyl)THF-3-carboxamide] was 487 nM.
On the same count and under the same terms, the same measure for `O=C(CC1CCOC1)N[C@@H](c1ccc(C(F)(F)F)cc1)c1ncccc1C(F)(F)F` (stereo partly drawn) [Example 157, 2-(THF-3-yl)-N-((S)-(4-(trifluoromethyl)phenyl)(3-(trifluoromethyl)pyridin-2-yl)methyl)acetamide]: 716 nM.
Still for that read-out and setting: the value for `O=C(N[C@@H](c1ccc2ncccc2c1)c1ncccc1C(F)(F)F)c1ccc2cccnc2c1` [Example 22, (S)-N-(quinolin-6-yl(3-(trifluoromethyl)pyridin-2-yl)methyl)quinoline-7-carboxamide] was 418 nM; that for `Cc1cccnc1[C@@H](NC(=O)c1ccc2oc(=O)[nH]c2c1)c1ccc(OC(F)(F)F)c(F)c1` [Example 358, (S)-N-((3-fluoro-4-(trifluoromethoxy)phenyl)(3-methylpyridin-2-yl)methyl)-2-oxo-2,3-dihydrobenzo[d]oxazole-5-carboxamide] was 14.1 nM; that for `Cc1cc(C)cc([C@H](NC(=O)c2ccc(=O)[nH]c2)c2ncccc2F)c1` [Example 324, (S)-N-((3,5-dimethylphenyl)(3-fluoropyridin-2-yl)methyl)-6-oxo-1,6-dihydropyridine-3-carboxamide] was 1050 nM.
In the case of `O=C(N[C@@H](c1ccc(C(F)(F)F)cc1)c1ncccc1F)c1ccc2[nH]c(=O)[nH]c2c1` [Example 177, (S)-N-((3-fluoropyridin-2-yl)(4-(trifluoromethyl)phenyl)methyl)-2-oxo-2,3-dihydro-1H-benzo[d]imidazole-5-carboxamide], the half-maximal inhibitory concentration (IC50) under setting [1] came to 20.8 nM.
In the case of `O=C(N[C@@H](c1ccc(C(F)(F)F)cc1)c1ncccc1C(F)(F)F)C1CCOCC1` [Example 152, (S)-N-((4-(trifluoromethyl)phenyl)(3-(trifluoromethyl)pyridin-2-yl)methyl)tetrahydro-2H-pyran-4-carboxamide], under setting [1], the half-inhibitory concentration (IC50) stood at 459 nM.
